Our source for the IC50 and EC50 values is ChEMBL document CHEMBL1136666, “Indanyl piperazines as melatonergic MT2 selective agents” (Bioorg Med Chem Lett, 2003).

A word on the IC50: it is the concentration at which inhibition is half-maximal. Read a low IC50 as inhibition by little substance. The term EC50 denotes the concentration that produces a half-maximal response. Read a high EC50 as lower potency in that assay.

Assay [1] has as its target T1, Melatonin receptor type 1B (Homo sapiens, UniProt P49286).
T1 sequence (P49286 whole entry): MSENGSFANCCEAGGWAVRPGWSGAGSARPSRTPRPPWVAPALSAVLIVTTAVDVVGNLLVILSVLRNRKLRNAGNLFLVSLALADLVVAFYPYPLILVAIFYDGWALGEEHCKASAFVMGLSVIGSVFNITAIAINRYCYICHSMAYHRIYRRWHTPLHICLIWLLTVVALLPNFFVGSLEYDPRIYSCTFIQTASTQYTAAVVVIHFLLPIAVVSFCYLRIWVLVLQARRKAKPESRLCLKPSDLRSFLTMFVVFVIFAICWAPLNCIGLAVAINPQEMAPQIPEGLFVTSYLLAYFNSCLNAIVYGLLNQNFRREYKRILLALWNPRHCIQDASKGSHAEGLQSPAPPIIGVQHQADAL
The experiment in a line: In vitro receptor binding at MT2 (Melatonin) receptor.

The target in assay [2] is Melatonin receptor type 1A (Homo sapiens, UniProt P48039). Kind of assay: In vitro receptor binding at MT1 (Melatonin) receptor.
Assay [3] concerns the target T1, Melatonin receptor type 1B. The experiment in a line: Effective concentration against human MT2 (Melatonin) receptor stably expressed in NIH3T3 cells in adenylyl cyclase assay. Format: functional, cell-based.

Sequence of Melatonin receptor type 1A (P48039 whole entry): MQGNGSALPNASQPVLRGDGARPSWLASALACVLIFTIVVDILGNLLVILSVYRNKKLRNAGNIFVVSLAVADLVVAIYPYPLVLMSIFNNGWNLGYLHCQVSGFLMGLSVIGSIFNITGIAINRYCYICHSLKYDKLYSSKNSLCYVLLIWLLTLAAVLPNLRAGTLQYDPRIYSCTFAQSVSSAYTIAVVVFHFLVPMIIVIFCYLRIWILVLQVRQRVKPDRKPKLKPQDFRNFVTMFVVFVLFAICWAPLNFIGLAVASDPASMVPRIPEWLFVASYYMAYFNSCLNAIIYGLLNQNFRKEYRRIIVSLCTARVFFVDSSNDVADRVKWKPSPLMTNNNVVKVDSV

For `CCNC(=O)N1CCN(c2cccc3ccc(OC)cc23)CC1`, the IC50 in assay [1] and in assay [2] was over 1000 nM throughout.
On to `COc1ccc2c(c1)C(N1CCN(C(C)=O)CC1)CC2` (stereo unspecified), for which the results for the IC50 in assay [1] and in assay [2] were 44 nM and over 1000 nM, respectively.
The like results for `COc1ccc2c(c1)C(N1CCN(C(=O)C3CC3)CC1)CCC2` (stereo unspecified) were, in that order, 75 nM and over 1000 nM.
The like results for `CCNC(=O)N1CCN([C@H]2CCc3ccc(OC)cc32)CC1` were, in that order, over 1000 nM and over 1000 nM.
The like results for `CCNC(=O)N1CCN(C2CCc3ccc(OC)cc32)CC1` (stereo unspecified) were, in that order, 3.1 nM and over 1000 nM.
`COc1ccc2cccc(N3CCN(C(=O)C4CC4)CC3)c2c1`: the IC50 was 90 nM in assay [1] and over 1000 nM in assay [2].
In the same order, the values of `COc1ccc2c(c1)C(N1CCN(C(=O)C3CC3)CC1)CC2` (stereo unspecified) are 3 nM and 156 nM.
The like results for `COc1ccc2c(c1)C(N1CCN(C(=O)C(C)C)CC1)CC2` (stereo unspecified) were, in that order, 1.5 nM and 160 nM.
Consider `CCC(=O)N1CCN(C2CCc3ccc(OC)cc32)CC1` (stereo unspecified), for which the 50% inhibitory concentration (IC50) in assay [1] is 32 nM; in assay [2], over 1000 nM.
The like results for `COc1ccc2c(c1)[C@H](N1CCN(C(=O)C(C)C)CC1)CC2` were, in that order, 1.5 nM and 116 nM.
`COc1ccc2c(c1)[C@@H](N1CCN(C(=O)C(C)C)CC1)CC2`: the IC50 in assay [1] and in assay [2] was over 1000 nM in each case.
In the case of `COc1ccc(F)c(CN2CCN(C(=O)C(C)C)CC2)c1`, the IC50 in assay [1] was 224 nM; in assay [2], over 1000 nM.
Turning to `COc1ccc(F)c(CN2CCN(C(=O)C3CC3)CC2)c1`, the IC50 was 270 nM in assay [1] and over 1000 nM in assay [2].
In the same order, the values of `COc1ccc(F)c(CN2CCN(C(C)=O)CC2)c1` are over 1000 nM and over 1000 nM.
In the same order, the values of `CCCCC(=O)N1CCN(C2CCc3ccc(OC)cc32)CC1` (stereo unspecified) are 103 nM and over 1000 nM.
Take `CCNC(=O)N1CCN(C2CCCc3ccc(OC)cc32)CC1` (stereo unspecified): the IC50 in assay [1] was 94 nM; in assay [2] it was over 1000 nM.
`COc1ccc2c(c1)[C@H](N1CCN(C(=O)C3CC3)CC1)CC2`: the IC50 in assay [1] was 1.6 nM; in assay [2] it was 44.5 nM.
On to `CCCC(=O)N1CCN(C2CCc3ccc(OC)cc32)CC1` (stereo unspecified), for which the IC50 was 2.3 nM in assay [1] and over 1000 nM in assay [2].
`COc1ccc2c(c1)[C@@H](N1CCN(C(=O)C3CC3)CC1)CC2`: the IC50 in assay [1] and in assay [2] was over 1000 nM in each case.
On to `CCNC(=O)N1CCN([C@@H]2CCc3ccc(OC)cc32)CC1`, for which the IC50 in assay [1] was 1.7 nM; in assay [2], 200 nM. The molecule further gave a concentration giving a half-maximal response (EC50) in assay [3] of 2.4 nM.
